Patent US6025358A, “Double prodrugs of potent GP IIb/IIIa antagonists” (G. D. Searle & Co., priority 1999, dated 2000)
Structures can show the parent of a compound that is named as a salt.

Test system: platelet aggregation
Experiment: Ex vivo screening of oral GP IIb/IIIa inhibitors: inhibition of collagen-induced platelet aggregation in PRP after oral dosing in beagles
Settings: beagle dogs, 5 mpk, collagen agonist; for inhibition in vivo at 5 mg/kg: Canis lupus familiaris, Platelet, n = 2, 32 hours post-dosing, read-out: Percent inhibition of platelet aggregation at 32 hour post-dosing; for % inhibition of platelet aggregation @ 26 hours: n = 2, 26 hours post-dosing
Description: Beagles (8-13 kg, various sources) of either sex are dosed orally with compound in a gelatin capsule. Blood samples are drawn from the cephalic vein using a 23 ga infusion butterfly. Samples for platelet aggregation and drug concentration are taken prior to dosing and 0.5, 1, 2, 3, 5, 7 and 10 hours after dosing and periodically on subsequent days until inhibition of platelet aggregation is less than 30%. Animals are fasted, with ad lib access to water, overnight prior to dosing. For measurement of plasma concentration blood is drawn into a 3 ml tube containing 45 USP units of Na Heparin. Blood is centrifuged at 1700×g for 10 minutes, plasma is aspirated and frozen at -20° C. until analyzed by HPLC. For measurement of platelet aggregation, blood is drawn into 2 2.0 ml tubes containing 0.2 ml of 3.8% Na Citrate. Blood is centrifuged at 250×g for 6 minutes and the platelet rich plasma (PRP) is aspirated. The remaining blood is centrifuged at 1700×g for 10 minutes and platelet poor plasma (PPP) is aspirated. Platelet aggregation is performed in a Bio-Data PAP-4 aggregometer (Bio-Data Corp., Havertown, Pa.) using collagen (100 μg/ml final concentration; Helena Laboratories, Beaumont, Tex.) as the agonist. Briefly, baseline (100% aggregation) is set using PPP; PRP is incubated at 37° C. for one minute without stirring and one minute with stirring, agonist is added and aggregation is allowed to develop for 4 minutes. Percent aggregation post-dosing is compared to percent aggregation pre-dosing to determine percent inhibition.
Percent inhibition of platelet aggregation at 32 hour post-dosing in
beagle dogs (5 mpk, n = 2)

`CC(C)OC(=O)CCNC(=O)N[C@H]1CCN(c2ccc(C(N)=NO)cc2)C1=O` [1(b), N-[[[(3S)-1-[4-[(hydroxyamino)iminomethyl]phenyl]-2-oxo-3-pyrrolidinyl]amino]carbonyl]-β-alanine 1-methylethyl ester monohydrochloride] gave an inhibition in vivo at 5 mg/kg of 71%.
Compound `CCCOC(=O)CCNC(=O)N[C@H]1CCN(c2ccc(C(N)=NO)cc2)C1=O` [1(c), N-[[[(3S)-1-[4-[(hydroxyamino)iminomethyl]phenyl]-2-oxo-3-pyrrolidinyl]amino]carbonyl]-β-alanine propyl ester monohydrochloride] has an inhibition in vivo at 5 mg/kg of 94%.
With `CC(C)COC(=O)CCNC(=O)N[C@H]1CCN(c2ccc(C(N)=NO)cc2)C1=O` [1(d), N-[[[(3S)-1-[4-[(hydroxyamino)iminomethyl]phenyl]-2-oxo-3-pyrrolidinyl]amino]carbonyl]-β-alanine 2-methylpropyl ester monohydrochloride] the inhibition in vivo at 5 mg/kg was 45%.
`CC(C)(C)COC(=O)CCNC(=O)N[C@H]1CCN(c2ccc(C(N)=NO)cc2)C1=O` [1(f), N-[[[(3S)-1-[4-[(hydroxyamino)iminomethyl]phenyl]-2-oxo-3-pyrrolidinyl]amino]carbonyl]-β-alanine 2,2-dimethylpropyl ester] showed an inhibition in vivo at 5 mg/kg of 87%.
`CCCCCOC(=O)CCNC(=O)N[C@H]1CCN(c2ccc(C(N)=NO)cc2)C1=O` [1(h), N-[[[(3S)-1-[4-[(hydroxyamino)iminomethyl]phenyl]-2-oxo-3-pyrrolidinyl]amino]carbonyl]-β-alanine pentyl ester monohydrochloride] gave an inhibition in vivo at 5 mg/kg of 39%.
In the case of `COC(=O)CCNC(=O)N[C@H]1CCN(c2ccc(C(=N)NOC(=O)N(C)CCN(C)C)cc2)C1=O.Cl` [3(a), N-[[[(3S)-1-[4-(1-imino-5,8-dimethyl-4-oxo-3-oxa-2,5,8-triazanon-1-yl)phenyl]-2-oxo-3-pyrrolidinyl]amino]carbonyl]-β-alanine methyl ester monohydrochloride], the “% inhibition of platelet aggregation @ 26 hours” value is reported as 33%.
Compound `COC(=O)CCNC(=O)N[C@H]1CCN(c2ccc(C(=N)NOC(=O)NCCN(C)C)cc2)C1=O` [3(b), N-[[[(3S)-1-[4-(1-imino-8-methyl-4-oxo-3-oxa-2,5,8-triazanon-1-yl)phenyl]-2-oxo-3-pyrrolidinyl]amino]carbonyl]-β-alanine methyl ester] has an inhibition in vivo at 5 mg/kg of 54%.
In the case of `CN1CCN(C(=O)ONC(=N)c2ccc(N3CC[C@H](NC(=O)NCCC(=O)OC4CCCCC4)C3=O)cc2)CC1` [3(cc), N-[[[(3S)-1-[4-[imino[[[(4-methyl-1-piperazinyl)carbonyl]oxy]amino]methyl]phenyl]-2-oxo-3-pyrrolidinyl]amino]carbonyl]-β-alanine cyclohexyl ester dihydrochloride monohydrate], the inhibition in vivo at 5 mg/kg is reported as 22%.
With `CCOC(=O)CCNC(=O)N[C@H]1CCN(c2ccc(C(=N)NOC(=O)N3CCN(C)CC3)cc2)C1=O.Cl.Cl` [3(d), N-[[[(3S)-1-[4-[imino[[[(4-methyl-1-piperazinyl)carbonyl]oxy]amino]methyl]phenyl]-2-oxo-3-pyrrolidinyl]amino]carbonyl]-β-alanine ethyl ester dihydrochloride] the “% inhibition of platelet aggregation @ 26 hours” value was 88%.
`CCOC(=O)CCNC(=O)N[C@H]1CCN(c2ccc(C(=N)NOC(=O)N(C)CCN(C)C)cc2)C1=O` [3(e), N-[[[(3S)-1-[4-(1-imino-5,8-dimethyl-4-oxo-3-oxa-2,5,8-triazanon-1-yl)phenyl]-2-oxo-3-pyrrolidinyl]amino]carbonyl]-β-alanine ethyl ester dihydrochloride] showed an inhibition in vivo at 5 mg/kg of 54%.
In the case of `CCOC(=O)CCNC(=O)N[C@H]1CCN(c2ccc(C(=N)NOC(=O)NCCN(C)C)cc2)C1=O` [3(f), N-[[[(3S)-1-[4-(1-imino-8-methyl-4-oxo-3-oxa-2,5,8-triazanon-1-yl)phenyl]-2-oxo-3-pyrrolidinyl]amino]carbonyl]-β-alanine ethyl ester monoacetate], the inhibition in vivo at 5 mg/kg is reported as 35%.
`CCCCCOC(=O)CCNC(=O)N[C@H]1CCN(c2ccc(C(=N)NOC(=O)N3CCN(C)CC3)cc2)C1=O` [3(ff), N-[[[(3S)-1-[4-[imino[[[(4-methyl-1-piperazinyl)carbonyl]oxy]amino]methyl]-phenyl]-2-oxo-3-pyrrolidinyl]amino]carbonyl]-β-alanine pentyl ester dihydrochloride] gave an inhibition in vivo at 5 mg/kg of 70%.
With `CCOC(=O)CCNC(=O)N[C@H]1CCN(c2ccc(C(=N)NOC(=O)N(C)CCCN(C)C)cc2)C1=O` [3(g), N-[[[(3S)-1-[4-(1-imino-5,9-dimethyl-4-oxo-3-oxa-2,5,9-triazadec-1-yl)phenyl]-2-oxo-3-pyrrolidinyl]amino]carbonyl]-β-alanine ethyl ester dihydrochloride] the inhibition in vivo at 5 mg/kg was 69%.
`CC(C)OC(=O)CCNC(=O)N[C@H]1CCN(c2ccc(C(=N)NOC(=O)N3CCN(C)CC3)cc2)C1=O` [3(h), N-[[[(3S)-1-[4-[imino[[[(4-methyl-1-piperazinyl)carbonyl]oxy]amino]methyl]phenyl]-2-oxo-3-pyrrolidinyl]amino]carbonyl]-β-alanine 1-methylethyl ester dihydrochloride] was tested, and the inhibition in vivo at 5 mg/kg was 56%.
With `CC(C)OC(=O)CCNC(=O)N[C@H]1CCN(c2ccc(C(=N)NOC(=O)NCCN(C)C)cc2)C1=O` [3(j), N-[[[(3S)-1-[4-(1-imino-8-methyl-4-oxo-3-oxa-2,5,8-triazanon-1-yl)phenyl]-2-oxo-3-pyrrolidinyl]amino]carbonyl]-β-alanine 1-methylethyl ester monoacetate] the inhibition in vivo at 5 mg/kg was 34%.
With `CCCOC(=O)CCNC(=O)N[C@H]1CCN(c2ccc(C(=N)NOC(=O)N3CCN(C)CC3)cc2)C1=O` [3(l), N-[[[(3S)-1-[4-[imino[[[(4-methyl-1-piperazinyl)carbonyl]oxy]amino]methyl]phenyl]-2-oxo-3-pyrrolidinyl]amino]carbonyl]-β-alanine propyl ester dihydrochloride] the inhibition in vivo at 5 mg/kg was 71%.
`CCCOC(=O)CCNC(=O)N[C@H]1CCN(c2ccc(C(=N)NOC(=O)N(C)CCN(C)C)cc2)C1=O` [3(m), N-[[[(3S)-1-[4-(1-imino-5,8-dimethyl-4-oxo-3-oxa-2,5,8-triazanon-1-yl)phenyl]-2-oxo-3-pyrrolidinyl]amino]carbonyl]-β-alanine propyl ester dihydrochloride] gave an inhibition in vivo at 5 mg/kg of 80%.
With `CCCOC(=O)CCNC(=O)N[C@H]1CCN(c2ccc(C(=N)NOC(=O)NCCN(C)C)cc2)C1=O` [3(n), N-[[[(3S)-1-[4-(1-imino-8-methyl-4-oxo-3-oxa-2,5,8-triazanon-1-yl)phenyl]-2-oxo-3-pyrrolidinyl]amino]carbonyl]-β-alanine propyl ester monoacetate monohydrate] the inhibition in vivo at 5 mg/kg was 73%.
For `CC(C)COC(=O)CCNC(=O)N[C@H]1CCN(c2ccc(C(=N)NOC(=O)N(C)CCN(C)C)cc2)C1=O` [3(q), N-[[[(3S)-1-[4-(1-imino-5,8-dimethyl-4-oxo-3-oxa-2,5,8-triazanon-1-yl)phenyl]-2-oxo-3-pyrrolidinyl]amino]carbonyl]-β-alanine 2-methylpropyl ester dihydrochloride], the inhibition in vivo at 5 mg/kg was 57%.
Work on `CC(C)COC(=O)CCNC(=O)N[C@H]1CCN(c2ccc(C(=N)NOC(=O)NCCN(C)C)cc2)C1=O` [3(r), N-[[[(3S)-1-[4-(1-imino-8-methyl-4-oxo-3-oxa-2,5,8-triazanon-1-yl)phenyl]-2-oxo-3-pyrrolidinyl]amino]carbonyl]-β-alanine 2-methylpropyl ester monoacetate] yielded an inhibition in vivo at 5 mg/kg of 46%.
For `CCCCOC(=O)CCNC(=O)N[C@H]1CCN(c2ccc(C(=N)NOC(=O)N(C)CCN(C)C)cc2)C1=O` [3(u), N-[[[(3S)-1-[4-(1-imino-5,8-dimethyl-4-oxo-3-oxa-2,5,8-triazanon-1-yl)phenyl]-2-oxo-3-pyrrolidinyl]amino]carbonyl]-β-alanine butyl ester dihydrochloride], the inhibition in vivo at 5 mg/kg was 63%.
`CCOC(=O)CCNC(=O)N[C@H]1CCN(c2ccc(C(N)=NOC(=O)N(C)C)cc2)C1=O` [4(a), N-[[[(3S)-1-[4-[[[[(dimethylamino)carbonyl]oxy]amino]iminomethyl]phenyl]-2-oxo-3-pyrrolidinyl]amino]carbonyl]-β-alanine ethyl ester] showed an inhibition in vivo at 5 mg/kg of 63%.
With `CC(C)OC(=O)CCNC(=O)N[C@H]1CCN(c2ccc(C(N)=NOC(=O)N(C)C)cc2)C1=O` [4(b), N-[[[(3S)-1-[4-[[[[(dimethylamino)carbonyl]oxy]amino]iminomethyl]phenyl]-2-oxo-3-pyrrolidinyl]amino]carbonyl]-β-alanine 1-methylethyl ester] the inhibition in vivo at 5 mg/kg was 20%.
`CCCOC(=O)CCNC(=O)N[C@H]1CCN(c2ccc(C(N)=NOC(=O)N(C)C)cc2)C1=O` [4(c), N-[[[(3S)-1-[4-[[[[(dimethylamino)carbonyl]oxy]amino]iminomethyl]phenyl]-2-oxo-3-pyrrolidinyl]amino]carbonyl]-β-alanine propyl ester] showed an inhibition in vivo at 5 mg/kg of 64%.
`CCOC(=O)CCNC(=O)N[C@H]1CCN(c2ccc(C(N)=NOC(N)=O)cc2)C1=O` [5(a), N-[[[(3S)-1-[4-[[[(aminocarbonyl)oxy]amino]iminomethyl]phenyl]-2-oxo-3-pyrrolidinyl]amino]carbonyl]-β-alanine ethyl ester] gave an inhibition in vivo at 5 mg/kg of 82%.
